Assay results published in patent US7208511B2, “Microbicidal composition” (Rohm and Haas Company, priority 2003, dated 2007).

Experiments:
Mixed Bacteria [1] = assay: Minimum Inhibitory Concentration (MIC) synergy test, microtiter plate; format: cell-based; settings: after 24 hours at 30° C.
Source text: (§1) One measure of synergism is the industrially accepted method described by Kull, F. C.; Eisman, P. C.; Sylwestrowicz, H. D. and Mayer, R. L., in Applied Microbiology 9:538–541 (1961), using the ratio determined by the formula: Qa/QA+Qb/QB=Synergy Index (“SI”) wherein: • QA=concentration of compound A (first component) in ppm, acting alone, which produced an end point (MIC of Compound A). • Qa=concentration of compound A in ppm, in the mixture, which produced an end point. • QB=concentration of compound B (second component) in ppm, acting alone, which produced an end point (MIC of Compound B). • Qb=concentration of compound B in ppm, in the mixture, which produced an end point.
(§2) When the sum of Qa/QA and Qb/QB is greater than one, antagonism is indicated. […] The lower the SI, the greater the synergy shown by that particular mixture. The minimum inhibitory concentration (MIC) of a microbicide is the lowest concentration tested under a specific set of conditions that prevents the growth of added microorganisms.
Synergy tests were conducted using standard microtiter plate assays with media designed for optimal growth of the test microorganism. […] High resolution MICs were determined by adding varying amounts of microbicide to one column of a microtitre plate and doing subsequent ten-fold dilutions using an automated liquid handling system to obtain a series of endpoints ranging from 2 ppm to 10,000 ppm active ingredient. The combinations of the present invention were tested against three bacteria, Pseudomonas aeruginosa (P. aeruginosa —ATCC #15442), Enterobacter aerogenes (ATCC #13048), and Kiebsiella pneumoniae (ATCC #13883). The bacteria were used at a concentration of about 10^8 bacteria per mL. These microorganisms are representative of natural contaminants in many consumer and industrial applications. The plates were visually evaluated for microbial growth (turbidity) to determine the MIC after various incubation times at 30° C.
(§3) In each test, First Component (A) was MI and the Second Component (B) was DBNPA. “NG” means that no growth was observed.

Mixed Bacteria [2] = assay: Speed of Kill test in TSB; format: cell-based; settings: for Minimum Effective Concentration ALONE: 5-log reduction criteria, no end point measured, value is 2× the highest level tested (Lazonby)
Source text: as §1, §2
To evaluate “Speed of Kill” an aliquot of 30 g of pH 8 TSB was dispensed in sterile 2 oz (60 mL) jars. Biocides stock solution was added into each jar to achieve the final concentration. The test samples were inoculated with 0.3 ml of mixed bacterial inoculum (resulting in 10^6/ml bacteria per ml of test solution). Samples were then placed in a shaker water bath at 30° C. Bacterial growth was monitored via the microtiter MPN method using the BECKMAN AUTOMATIC 2000 Workstation after 30 min, 1, 4, 24, 48, 72 hours and again 6–7 days contact time. The microtiter plates were incubated at 30° C. for 2 days.
as §3

With N#CC(Br)(Br)C(N)=O [DBNPA, 2,2-dibromo-3-nitrilopropionamide] as the molecule, how does the “MIC Values ALONE” value (Mixed Bacteria [1]; 1/10 TSB) read?
The value was 45 ppm AI.

What about the “MIC Values ALONE” value (Mixed Bacteria [1]; M9G + 0.1% yeast extract) of the same molecule?
The value was 45 ppm AI.

And the “Minimum Effective Concentration ALONE” value (Mixed Bacteria [2]; 24 hr)?
The value was 46 ppm AI.

What about the “Minimum Effective Concentration ALONE” value (Mixed Bacteria [2]; 48 hr) of the same molecule?
Its value is 46 ppm AI.

What about the “Minimum Effective Concentration ALONE” value (Mixed Bacteria [2]; 72 hr) of the same molecule?
The value was 46 ppm AI.

What about the “CFU/ml Bacteria Log Reduction vs Control” value (Mixed Bacteria [2]; DBNPA 1 ppm AI alone, 30 min @ 30° C.) of the same molecule?
The value was 0.6 log.

And the “CFU/ml Bacteria Log Reduction vs Control” value (Mixed Bacteria [2]; DBNPA 1 ppm AI alone, 1 hr @ 30° C.)?
Its value is −0.6 log.

What about the “CFU/ml Bacteria Log Reduction vs Control” value (Mixed Bacteria [2]; DBNPA 1 ppm AI alone, 4 hr @ 30° C.) of the same molecule?
The value was −1.0 log.

And the “CFU/ml Bacteria Log Reduction vs Control” value (Mixed Bacteria [2]; DBNPA 1 ppm AI alone, 24 hr @ 30° C.)?
The value was −2.6 log.

And the “CFU/ml Bacteria Log Reduction vs Control” value (Mixed Bacteria [2]; DBNPA 2 ppm AI alone, 30 min @ 30° C.)?
Its value is −0.1 log.

And the “CFU/ml Bacteria Log Reduction vs Control” value (Mixed Bacteria [2]; DBNPA 2 ppm AI alone, 1 hr @ 30° C.)?
The value was −0.3 log.

And the “CFU/ml Bacteria Log Reduction vs Control” value (Mixed Bacteria [2]; DBNPA 2 ppm AI alone, 4 hr @ 30° C.)?
The value was −0.8 log.

What about the “CFU/ml Bacteria Log Reduction vs Control” value (Mixed Bacteria [2]; DBNPA 2 ppm AI alone, 24 hr @ 30° C.) of the same molecule?
Its value is −1.4 log.

What about the “CFU/ml Bacteria Log Reduction vs Control” value (Mixed Bacteria [2]; DBNPA 5 ppm AI alone, 30 min @ 30° C.) of the same molecule?
Its value is 0.4 log.

And the “CFU/ml Bacteria Log Reduction vs Control” value (Mixed Bacteria [2]; DBNPA 5 ppm AI alone, 1 hr @ 30° C.)?
The value was −0.3 log.

And the “CFU/ml Bacteria Log Reduction vs Control” value (Mixed Bacteria [2]; DBNPA 5 ppm AI alone, 4 hr @ 30° C.)?
Its value is −0.8 log.

And the “CFU/ml Bacteria Log Reduction vs Control” value (Mixed Bacteria [2]; DBNPA 5 ppm AI alone, 24 hr @ 30° C.)?
Its value is −1.6 log.

What about the “CFU/ml Bacteria Log Reduction vs Control” value (Mixed Bacteria [2]; DBNPA 9 ppm AI alone, 30 min @ 30° C.) of the same molecule?
The value was 0.4 log.

And the “CFU/ml Bacteria Log Reduction vs Control” value (Mixed Bacteria [2]; DBNPA 9 ppm AI alone, 1 hr @ 30° C.)?
Its value is 0.0 log.

What about the “CFU/ml Bacteria Log Reduction vs Control” value (Mixed Bacteria [2]; DBNPA 9 ppm AI alone, 4 hr @ 30° C.) of the same molecule?
Its value is −1.0 log.

And the “CFU/ml Bacteria Log Reduction vs Control” value (Mixed Bacteria [2]; DBNPA 9 ppm AI alone, 24 hr @ 30° C.)?
The value was −2.0 log.

What about the “CFU/ml Bacteria Log Reduction vs Control” value (Mixed Bacteria [2]; DBNPA 23 ppm AI alone, 30 min @ 30° C.) of the same molecule?
Its value is 0.4 log.

What about the “CFU/ml Bacteria Log Reduction vs Control” value (Mixed Bacteria [2]; DBNPA 23 ppm AI alone, 1 hr @ 30° C.) of the same molecule?
Its value is 0.2 log.

And the “CFU/ml Bacteria Log Reduction vs Control” value (Mixed Bacteria [2]; DBNPA 23 ppm AI alone, 4 hr @ 30° C.)?
The value was −1.0 log.

And the “CFU/ml Bacteria Log Reduction vs Control” value (Mixed Bacteria [2]; DBNPA 23 ppm AI alone, 24 hr @ 30° C.)?
Its value is −1.4 log.

How did the “MIC Values ALONE” value (Mixed Bacteria [1]; 1/10 TSB) turn out when Cn1sccc1=O [MI, 2-methyl-4-isothiazolin-3-one] was run?
The value was 38 ppm AI.

And the “MIC Values ALONE” value (Mixed Bacteria [1]; M9G + 0.1% yeast extract)?
Its value is 38 ppm AI.

What about the “Minimum Effective Concentration ALONE” value (Mixed Bacteria [2]; 24 hr) of the same molecule?
The value was 300 ppm AI.

And the “Minimum Effective Concentration ALONE” value (Mixed Bacteria [2]; 48 hr)?
Its value is 300 ppm AI.

And the “Minimum Effective Concentration ALONE” value (Mixed Bacteria [2]; 72 hr)?
Its value is 300 ppm AI.

And the “CFU/ml Bacteria Log Reduction vs Control” value (Mixed Bacteria [2]; MI 25 ppm AI alone, 30 min @ 30° C.)?
The value was −0.3 log.

What about the “CFU/ml Bacteria Log Reduction vs Control” value (Mixed Bacteria [2]; MI 25 ppm AI alone, 1 hr @ 30° C.) of the same molecule?
Its value is 0.0 log.

And the “CFU/ml Bacteria Log Reduction vs Control” value (Mixed Bacteria [2]; MI 25 ppm AI alone, 4 hr @ 30° C.)?
The value was 0.2 log.

And the “CFU/ml Bacteria Log Reduction vs Control” value (Mixed Bacteria [2]; MI 25 ppm AI alone, 24 hr @ 30° C.)?
The value was −1.3 log.

And the “CFU/ml Bacteria Log Reduction vs Control” value (Mixed Bacteria [2]; MI 25 ppm AI alone, 48 hr @ 30° C.)?
Its value is −2.0 log.

And the “CFU/ml Bacteria Log Reduction vs Control” value (Mixed Bacteria [2]; MI 50 ppm AI alone, 30 min @ 30° C.)?
The value was 0.4 log.

What about the “CFU/ml Bacteria Log Reduction vs Control” value (Mixed Bacteria [2]; MI 50 ppm AI alone, 1 hr @ 30° C.) of the same molecule?
The value was 0.2 log.

What about the “CFU/ml Bacteria Log Reduction vs Control” value (Mixed Bacteria [2]; MI 50 ppm AI alone, 4 hr @ 30° C.) of the same molecule?
The value was 0.4 log.

And the “CFU/ml Bacteria Log Reduction vs Control” value (Mixed Bacteria [2]; MI 50 ppm AI alone, 24 hr @ 30° C.)?
The value was −0.6 log.

What about the “CFU/ml Bacteria Log Reduction vs Control” value (Mixed Bacteria [2]; MI 50 ppm AI alone, 48 hr @ 30° C.) of the same molecule?
The value was −1.6 log.

And the “CFU/ml Bacteria Log Reduction vs Control” value (Mixed Bacteria [2]; MI 75 ppm AI alone, 30 min @ 30° C.)?
The value was 0.2 log.

And the “CFU/ml Bacteria Log Reduction vs Control” value (Mixed Bacteria [2]; MI 75 ppm AI alone, 1 hr @ 30° C.)?
The value was 0.2 log.

What about the “CFU/ml Bacteria Log Reduction vs Control” value (Mixed Bacteria [2]; MI 75 ppm AI alone, 4 hr @ 30° C.) of the same molecule?
The value was −0.3 log.

What about the “CFU/ml Bacteria Log Reduction vs Control” value (Mixed Bacteria [2]; MI 75 ppm AI alone, 24 hr @ 30° C.) of the same molecule?
The value was 0.2 log.

What about the “CFU/ml Bacteria Log Reduction vs Control” value (Mixed Bacteria [2]; MI 75 ppm AI alone, 48 hr @ 30° C.) of the same molecule?
The value was −2.0 log.

What about the “CFU/ml Bacteria Log Reduction vs Control” value (Mixed Bacteria [2]; MI 100 ppm AI alone, 168 @ 30° C.) of the same molecule?
The value was −2.8 log.

And the “CFU/ml Bacteria Log Reduction vs Control” value (Mixed Bacteria [2]; MI 100 ppm AI alone, 30 min @ 30° C.)?
The value was 0.4 log.

What about the “CFU/ml Bacteria Log Reduction vs Control” value (Mixed Bacteria [2]; MI 100 ppm AI alone, 1 hr @ 30° C.) of the same molecule?
The value was 0.6 log.

And the “CFU/ml Bacteria Log Reduction vs Control” value (Mixed Bacteria [2]; MI 100 ppm AI alone, 4 hr @ 30° C.)?
Its value is 0.2 log.

What about the “CFU/ml Bacteria Log Reduction vs Control” value (Mixed Bacteria [2]; MI 100 ppm AI alone, 24 hr @ 30° C.) of the same molecule?
Its value is 0.8 log.

What about the “CFU/ml Bacteria Log Reduction vs Control” value (Mixed Bacteria [2]; MI 100 ppm AI alone, 48 hr @ 30° C.) of the same molecule?
Its value is 1.7 log.

And the “CFU/ml Bacteria Log Reduction vs Control” value (Mixed Bacteria [2]; MI 100 ppm AI alone, 72 hr @ 30° C.)?
The value was 0.0 log.

What about the “CFU/ml Bacteria Log Reduction vs Control” value (Mixed Bacteria [2]; MI 150 ppm AI alone, 168 @ 30° C.) of the same molecule?
Its value is −2.0 log.

And the “CFU/ml Bacteria Log Reduction vs Control” value (Mixed Bacteria [2]; MI 150 ppm AI alone, 30 min @ 30° C.)?
Its value is 0.6 log.

What about the “CFU/ml Bacteria Log Reduction vs Control” value (Mixed Bacteria [2]; MI 150 ppm AI alone, 1 hr @ 30° C.) of the same molecule?
The value was 0.2 log.

What about the “CFU/ml Bacteria Log Reduction vs Control” value (Mixed Bacteria [2]; MI 150 ppm AI alone, 4 hr @ 30° C.) of the same molecule?
The value was 0.0 log.

What about the “CFU/ml Bacteria Log Reduction vs Control” value (Mixed Bacteria [2]; MI 150 ppm AI alone, 24 hr @ 30° C.) of the same molecule?
Its value is −0.2 log.

And the “CFU/ml Bacteria Log Reduction vs Control” value (Mixed Bacteria [2]; MI 150 ppm AI alone, 48 hr @ 30° C.)?
The value was 1.7 log.

What about the “CFU/ml Bacteria Log Reduction vs Control” value (Mixed Bacteria [2]; MI 150 ppm AI alone, 72 hr @ 30° C.) of the same molecule?
The value was 0.4 log.
